Laboratory results reported in BindingDB's records for patent US20240327385 (2024).

Target: T1, Renin (Homo sapiens, UniProt P00797)
T1 sequence (P00797 whole entry): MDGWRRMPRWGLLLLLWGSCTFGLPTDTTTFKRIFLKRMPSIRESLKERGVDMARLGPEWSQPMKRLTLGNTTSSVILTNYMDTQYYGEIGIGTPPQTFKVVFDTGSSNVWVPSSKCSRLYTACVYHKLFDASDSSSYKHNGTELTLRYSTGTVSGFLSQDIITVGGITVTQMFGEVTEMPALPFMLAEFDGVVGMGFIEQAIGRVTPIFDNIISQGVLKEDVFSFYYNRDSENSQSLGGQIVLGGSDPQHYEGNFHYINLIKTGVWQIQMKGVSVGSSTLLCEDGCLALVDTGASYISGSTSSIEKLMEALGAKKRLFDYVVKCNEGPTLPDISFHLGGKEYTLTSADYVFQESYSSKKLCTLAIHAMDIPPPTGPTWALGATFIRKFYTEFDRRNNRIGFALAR
Assay: Inhibitory Effects on Human Renin Activity Assay
Procedure: Briefly, human recombinant renin (from the kit) was incubated with the compound of the disclosure or buffer for 30 min at 37° C. before substrate addition. Fluorescence intensity was measured at 530 nm after an incubation of 15 min at 37° C. Data was analyzed by Prism and fitted into a sigmodal curve for IC50 calculation.

IC50: 1.6 nM
SMILES: CO[C@H]1C[C@H](Nc2cc(C3CC3)cnc2C(=O)N(CC(C)C)C2CNCC(C(=O)N3CCOC(C)(C)C3)C2)C1 (stereo partly specified) [US20240327385, Example 8]
